Experimental data as given in patent US8999981B2, “3-amido-pyrrolo[3,4-C]pyrazole-5(1H, 4H,6H) carbaldehyde derivatives” (Pfizer Inc., priority 2007, dated 2015).

The molecules below were run against Protein Kinase C beta 2 (PKCβII) (Homo sapiens (Human), UniProt P05771) (assay: PKCβII coupled PK/LDH spectrophotometric kinase assay). Settings: apparent Ki, ATP-competitive model (Morrison equation); 0.1 mM ATP, 30° C.; read-out: PKCb Ki.
Assay type: biochemical

Sequence of Protein Kinase C beta 2 (PKCβII) (P05771 other isoform, or with tags, fused parts or gaps): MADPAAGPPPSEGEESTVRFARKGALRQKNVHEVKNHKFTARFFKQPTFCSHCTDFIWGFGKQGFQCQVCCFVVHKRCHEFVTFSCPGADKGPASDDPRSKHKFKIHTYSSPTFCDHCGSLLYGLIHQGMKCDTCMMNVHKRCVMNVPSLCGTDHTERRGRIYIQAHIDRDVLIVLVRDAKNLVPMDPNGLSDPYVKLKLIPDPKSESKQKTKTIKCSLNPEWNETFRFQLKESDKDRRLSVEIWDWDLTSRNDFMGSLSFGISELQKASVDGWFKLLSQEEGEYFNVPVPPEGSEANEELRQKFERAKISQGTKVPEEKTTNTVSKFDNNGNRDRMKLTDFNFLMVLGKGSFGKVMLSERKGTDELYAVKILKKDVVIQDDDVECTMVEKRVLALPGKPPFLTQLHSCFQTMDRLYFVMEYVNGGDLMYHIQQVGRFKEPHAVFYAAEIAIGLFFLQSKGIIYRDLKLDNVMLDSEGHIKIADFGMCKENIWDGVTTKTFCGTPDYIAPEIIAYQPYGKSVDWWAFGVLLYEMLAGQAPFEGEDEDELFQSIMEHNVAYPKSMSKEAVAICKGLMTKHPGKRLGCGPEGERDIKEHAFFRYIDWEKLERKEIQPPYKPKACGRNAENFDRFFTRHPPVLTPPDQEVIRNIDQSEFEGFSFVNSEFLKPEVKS

SMILES	Ki [µM]
C[C@@H]1CN(C(=O)N2Cc3c(NC(=O)c4ccc(C(F)(F)F)cn4)n[nH]c3C2(C)C)[C@@H](C)CN1CC1CCOCC1 [Example F60]	0.00417
C[C@@H]1CN(C(=O)N2Cc3c(NC(=O)c4ccc(C#N)cn4)n[nH]c3C2(C)C)[C@@H](C)CN1C1CCOCC1 [Example G1, 5-cyano-N-(5-{[(2S,5R)-2,5-dimethyl-4-(tetrahydro-2H-pyran-4-yl)piperazin-1-yl]carbonyl}-6,6-dimethyl-1,4,5,6-tetrahydropyrrolo[3,4-c]pyrazol-3-yl)pyridine-2-carboxamide]	< 0.01

Results, then the molecule that gave them:

Ki [µM]	SMILES
0.02	Cc1noc(C)c1CC(=O)Nc1n[nH]c2c1CN(C(=O)N1C[C@@H](C)N(CC3CCOCC3)C[C@@H]1C)C2(C)C [Example F59]
0.0287	C[C@@H]1CN(C(=O)N2Cc3c(NC(=O)c4ccc(C#N)cn4)n[nH]c3C2(C)C)[C@@H](C)CN1C [Example G2]
< 0.01	C[C@@H]1CN(C(=O)N2Cc3c(NC(=O)c4ccc(C#N)cn4)n[nH]c3C2(C)C)[C@@H](C)CN1CC1CCOCC1 [Example G3]
